# Experiments:
# Test in all cases: biochemical
# DR7 (DRB1*0701) = DR7 (DRB1*0701) (Homo sapiens, UniProt P01903+P01911, A100R/A102G/A103Q/D57E/D86V/E43K/F76Y/K127E/L162R/M171V/P40G/Q125H/Q99D/R33Q/R42Y/R54Q/S133A/S66F/T210M/V115G/Y107V/Y59L/Y89S); format: binding
# DR1 (DRB1*0101) = DR1 (DRB1*0101) (Homo sapiens, UniProt P01903+P01911, A100R/D57E/F55L/F60I/F76Y/I96L/L162R/M171V/P40L/Q125E/R42F/V115G/Y59C); format: binding
# DRB1*1302 = DRB1*1302 (Homo sapiens, UniProt P01903+P01911, A100E/A169T/K41T/L162R/M171V/P40S/Q125H/Q178H/Q39Y/Q99D/R42S/S66N/T262R/V115G/W38E/Y61H); format: binding
# Sequence of DRB1*1302 (P01903 26-254 limits assumed, other chains not shown): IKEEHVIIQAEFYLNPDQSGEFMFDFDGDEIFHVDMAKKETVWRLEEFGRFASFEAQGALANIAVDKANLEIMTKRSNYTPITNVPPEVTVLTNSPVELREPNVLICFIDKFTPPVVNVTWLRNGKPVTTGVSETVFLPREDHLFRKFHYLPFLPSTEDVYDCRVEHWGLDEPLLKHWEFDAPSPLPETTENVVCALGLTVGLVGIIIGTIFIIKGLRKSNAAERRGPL
# DRB5*0101 = DRB5*0101 (Homo sapiens, UniProt P01903+Q30154); settings: Binding affinity DRB5 *0101
# DRB1*1201 = DRB1*1201 (Homo sapiens, UniProt P01903+P01911, A100R/A169T/D57E/D86V/F55L/H45Y/K41T/L162R/M171V/P40S/Q125H/Q178H/Q39Y/Q99D/R42G/S66L/T262R/V114A/V67L/W38E/Y59H/Y61H/Y89S); format: binding
# DRB3*0101 = DRB3*0101 (Homo sapiens, UniProt P01903+P79483); format: binding
# DRB1*0802 = DRB1*0802 (Homo sapiens, UniProt P01903+P01911, A100R/A103L/A169T/F76Y/H45Y/I96F/K41T/L162R/M171V/P40S/Q125H/Q178H/Q39Y/Q99D/R218S/R42G/S66Y/V115G/W38E); format: binding
# DRB1*1101 = DRB1*1101 (Homo sapiens, UniProt P01903+P01911, A100R/A169T/A87E/I96F/K41T/L162R/M171V/P40S/Q125H/Q178H/Q39Y/Q99D/R42S/S66Y/T262R/V115G/W38E); settings: Binding affinity DRB1 *1101
# Sequence of DRB1*1101 (P01903 26-254 limits assumed, other chains not shown): as above
# DRB1*1501 = DRB1*1501 (Homo sapiens, UniProt P01903+P01911); format: binding
# DRB1*0901 = DRB1*0901 (Homo sapiens, UniProt P01903+P01911, A100R/A103E/D57H/D86V/F55Y/F60I/F76Y/I96F/K127E/L162R/M171V/P40D/Q125H/Q99R/R33Q/R42F/S133A/S66N/T210M/V115G/W38K/Y107V/Y59G/Y89S); format: binding
# DR4w4 (DRB1*0401) = DR4w4 (DRB1*0401) (Homo sapiens, UniProt P01903+P01911, A100K/A169T/F76Y/I96L/K127E/L162R/M171V/N62H/P40V/Q125Y/R42H/S133A/S149N/S66Y/V115G/V209L/W38E); format: binding
# DRB4*0101 = DRB4*0101 (Homo sapiens, UniProt P01903+P13762, G164S); format: binding
SMILES,IC50 (DR7 (DRB1*0701)),IC50 (DR1 (DRB1*0101)),IC50 (DRB1*1302),IC50 (DRB5*0101),IC50 (DRB1*1201),IC50 (DRB3*0101),IC50 (DRB1*0802),IC50 (DRB1*1101),IC50 (DRB1*1501),IC50 (DRB1*0901),IC50 (DR4w4 (DRB1*0401)),IC50 (DRB4*0101)
CC[C@H](C)[C@H](NC(=O)[C@@H]1CCCN1C(=O)[C@H](CC(=O)O)NC(=O)[C@@H](NC(=O)[C@@H]1CCCN1C(=O)[C@H](Cc1ccccc1)NC(=O)[C@@H](NC(=O)[C@H](CC(=O)O)NC(=O)[C@@H](NC(=O)[C@@H]1CCCN1C(=O)[C@H](CO)NC(=O)[C@@H](N)CCCNC(=N)N)[C@@H](C)CC)[C@@H](C)O)[C@@H](C)O)C(=O)N[C@@H](CCCCN)C(=O)N[C@@H](CCC(=O)O)C(=O)N[C@@H](CO)C(=O)O [Peptide 68.0026],> 20 µM,> 20 µM,> 20 µM,> 20 µM,> 20 µM,> 20 µM,> 20 µM,> 20 µM,–,–,–,–
CSCC[C@H](NC(=O)CNC(=O)[C@H](CC(C)C)NC(=O)[C@H](CCC(N)=O)NC(=O)[C@@H](NC(=O)[C@H](CC(C)C)NC(=O)[C@H](CCC(N)=O)NC(=O)CNC(=O)[C@@H](N)Cc1ccccc1)[C@@H](C)O)C(=O)N[C@@H](CCC(=O)O)C(=O)N[C@@H](CCC(N)=O)C(=O)N[C@@H](Cc1c[nH]cn1)C(=O)N[C@@H](Cc1ccc(O)cc1)C(=O)N[C@@H](CCC(=O)O)C(=O)N[C@@H](CC(C)C)C(=O)O [Peptide 68.0028],> 20 µM,–,> 20 µM,–,0.653 µM,> 20 µM,> 20 µM,> 20 µM,> 20 µM,> 20 µM,–,–
CC[C@H](C)[C@H](NC(=O)[C@@H]1CCCN1C(=O)[C@H](CCC(N)=O)NC(=O)[C@@H](N)Cc1c[nH]c2ccccc12)C(=O)N1CCC[C@H]1C(=O)N[C@H](C(=O)N[C@@H](Cc1c[nH]cn1)C(=O)N[C@H](C(=O)N[C@H](C(=O)N1CCC[C@H]1C(=O)N[C@@H](CC(C)C)C(=O)N[C@@H](CO)C(=O)N[C@@H](CCC(=O)O)C(=O)N[C@@H](CC(=O)O)C(=O)N[C@@H](CCC(N)=O)C(=O)O)C(C)C)[C@@H](C)O)C(C)C [Peptide 68.0039],–,–,–,> 20 µM,> 20 µM,> 20 µM,> 20 µM,> 20 µM,> 20 µM,–,> 20 µM,–
CC(C)C[C@H](NC(=O)CNC(=O)[C@H](CC(N)=O)NC(=O)[C@H](Cc1ccc(O)cc1)NC(=O)[C@@H](NC(=O)[C@H](CC(=O)O)NC(=O)[C@H](CC(C)C)NC(=O)[C@H](C)N)C(C)C)C(=O)N[C@@H](CC(C)C)C(=O)N1CCC[C@H]1C(=O)N1CCC[C@H]1C(=O)N[C@@H](Cc1ccc(O)cc1)C(=O)N[C@@H](C)C(=O)N[C@@H](CO)C(=O)N[C@@H](CS)C(=O)O [Peptide 68.0052],> 20 µM,–,> 20 µM,> 20 µM,7.57 µM,> 20 µM,–,–,–,> 20 µM,–,> 20 µM
CC(C)C[C@H](NC(=O)CNC(=O)[C@H](CC(N)=O)NC(=O)[C@H](Cc1ccc(O)cc1)NC(=O)[C@@H](NC(=O)[C@H](CC(=O)O)NC(=O)[C@@H](N)CC(C)C)C(C)C)C(=O)N[C@@H](CC(C)C)C(=O)N1CCC[C@H]1C(=O)N1CCC[C@H]1C(=O)N[C@@H](Cc1ccc(O)cc1)C(=O)N[C@@H](C)C(=O)N[C@@H](CO)C(=O)N[C@@H](CS)C(=O)N[C@@H](Cc1c[nH]cn1)C(=O)O [Peptide 68.0053],> 20 µM,–,> 20 µM,> 20 µM,9.75 µM,> 20 µM,–,–,–,> 20 µM,–,> 20 µM
CC(C)C[C@H](NC(=O)CNC(=O)[C@H](CC(N)=O)NC(=O)[C@@H](N)Cc1ccc(O)cc1)C(=O)N[C@@H](CC(C)C)C(=O)N1CCC[C@H]1C(=O)N1CCC[C@H]1C(=O)N[C@@H](Cc1ccc(O)cc1)C(=O)N[C@@H](C)C(=O)N[C@@H](CO)C(=O)N[C@@H](CS)C(=O)N[C@@H](Cc1c[nH]cn1)C(=O)N[C@@H](CC(C)C)C(=O)N[C@H](C(=O)N[C@@H](CCC(=O)O)C(=O)O)[C@@H](C)O [Peptide 68.0054],> 20 µM,–,–,–,> 20 µM,> 20 µM,–,–,–,–,–,> 20 µM
CSCC[C@H](NC(=O)[C@H](CC(=O)O)NC(=O)[C@H](Cc1ccc(O)cc1)NC(=O)[C@H](CC(C)C)NC(=O)[C@@H]1CCCN1C(=O)[C@H](Cc1c[nH]cn1)NC(=O)[C@@H]1CCCN1)C(=O)N[C@@H](CO)C(=O)N[C@@H](CC(C)C)C(=O)N[C@@H](CC(C)C)C(=O)N[C@@H](CCCCN)C(=O)N[C@@H](CC(N)=O)C(=O)N[C@@H](CCCNC(=N)N)C(=O)N[C@@H](Cc1ccccc1)C(=O)N[C@@H](CC(C)C)C(=O)O [Peptide 68.0071],–,–,–,–,0.487 µM,> 20 µM,> 20 µM,> 20 µM,–,–,> 20 µM,–
CSCC[C@H](NC(=O)[C@@H](NC(=O)[C@H](CCCCN)NC(=O)[C@@H](NC(=O)[C@H](C)NC(=O)[C@H](CC(=O)O)NC(=O)[C@@H](N)[C@@H](C)O)C(C)C)C(C)C)C(=O)N[C@@H](CC(=O)O)C(=O)N[C@@H](CC(C)C)C(=O)N1CCC[C@H]1C(=O)N[C@H](C(=O)N[C@@H](CCC(N)=O)C(=O)N[C@@H](CCC(=O)O)C(=O)N1CCC[C@H]1C(=O)N[C@@H](C)C(=O)O)[C@@H](C)O [Peptide 68.0074],> 20 µM,> 20 µM,> 20 µM,> 20 µM,> 20 µM,> 20 µM,> 20 µM,> 20 µM,> 20 µM,> 20 µM,> 20 µM,–

# Source: patent US9340577B2, “HLA binding motifs and peptides and their uses” (priority 1992, dated 2016)
